Results on twelve compounds are retold here after paper PMC8305768, “Design, Synthesis and Antiparasitic Evaluation of Click Phospholipids” (Molecules, 2021).

Structures can show the parent of a compound that is named as a salt. Bounds are passed on as bounds.

In one data set the target is T1, CYP2C19 (Homo sapiens, UniProt P33261).
T1 construct: purchased Corning Inc; host or cells: baculovirus-infected insect cells
The experiment in a line: Cytochrome P450 inhibition assay (P450-Glo) CYP2C19. The data set is classed as in vitro ADME. The following applies: compounds 10 μM; miltefosine 10 μM or 1 μM. An excerpt:
(§1) Cytochrome (CYP) P450 inhibition assay: These assays made use of microsomal preparations of CYP450 (1A2, 2C9, 2C19, 2D6 and 3A4) from baculovirus-infected insect cells (Corning Inc., Corning, NY, USA) and cytochrome c reductase (and cytochrome b5 for CYP450 3A4). For detection of CYP450 activity, the luminescence-based P450-Glo (Promega Corp., Madison, WI, USA) assay system was used that contained a luminogenic CYP450 substrate, lyophilized luciferin detection reagent and reconstitution buffer. The substrates were luciferin derivatives of CYP450-specific substrates that produce (4S)-4,5-dihydro-2-(6-hydroxybenzothiazolyl)-4-thiazolecarboxylic acid (D-luciferin) after cleavage by CYP450 (CYP450 3A4, luciferin-IPA; CYP450 2C19, luciferin-H EGE; CYP450 2C9, luciferin-H; CYP450 2D6, luciferin-ME EGE; CYP450 1A2, luciferin-1A2). CYP450 reactions were initiated by addition of the NADPH regeneration system to the enzyme–substrate mixture with the luciferin detection reagent stopping the reaction and the D-luciferin being converted to oxyluciferin under the production of light being proportional to the CYP450 activity. The CYP450 assays were performed using the Tecan Fluent liquid-handling automation platform (Tecan Group Ltd., Mannedorf, Switzerland) in the 384-well assay format. Compounds were added into an empty 384-well plate (100 nL/well in 1% v/v DMSO) using the Echo 550 Liquid Handler followed by the addition of 5 μL/well of the CYP450/substrate mixture and incubation for 30 min at 37 °C, after which the reaction was initiated by the addition of the 5 μL/well NADPH regeneration system. After a further 30-min incubation at 37 °C, the CYP450 reaction was stopped and the luciferase reaction was simultaneously initiated by addition of 10 μL/well of luciferin detection reagent, followed by an additional 30-min incubation at 37 °C. The luminescence signal was detected using an Infinite M1000 PRO plate reader (Tecan Group Ltd., Mannedorf, Switzerland). The NCs yielded 0% inhibition (1% v/v DMSO) and standard CYP450 specific inhibitors were used as positive controls, yielding 100% inhibition (CYP450 1A2, alpha-naphthoflavone; CYP450 2C9, sulfaphenazole; CYP450 2C19, troglitazone; CYP450 2D6, quinidine; CYP450 3A4, ketoconazole).
(§2) Data analysis: The screening data were obtained in triplicate and analysed using ActivityBase (IDBS, Guildford, UK), and outlier elimination in the control wells was performed using the 3-sigma method. Unless stated, dose–response experiments were performed in the 11-point format with the IC50 value, Hill slope, minimum signal and maximum signal for each dose–response curve obtained using a four-parameter logistic fit in the XE module of ActivityBase (IDBS).

In a further data set the target is T2, CYP1A2 (Homo sapiens, UniProt P05177).
T2 construct: purchased Corning Inc; host or cells: baculovirus-infected insect cells
T2 sequence (P05177 2-516 limits assumed): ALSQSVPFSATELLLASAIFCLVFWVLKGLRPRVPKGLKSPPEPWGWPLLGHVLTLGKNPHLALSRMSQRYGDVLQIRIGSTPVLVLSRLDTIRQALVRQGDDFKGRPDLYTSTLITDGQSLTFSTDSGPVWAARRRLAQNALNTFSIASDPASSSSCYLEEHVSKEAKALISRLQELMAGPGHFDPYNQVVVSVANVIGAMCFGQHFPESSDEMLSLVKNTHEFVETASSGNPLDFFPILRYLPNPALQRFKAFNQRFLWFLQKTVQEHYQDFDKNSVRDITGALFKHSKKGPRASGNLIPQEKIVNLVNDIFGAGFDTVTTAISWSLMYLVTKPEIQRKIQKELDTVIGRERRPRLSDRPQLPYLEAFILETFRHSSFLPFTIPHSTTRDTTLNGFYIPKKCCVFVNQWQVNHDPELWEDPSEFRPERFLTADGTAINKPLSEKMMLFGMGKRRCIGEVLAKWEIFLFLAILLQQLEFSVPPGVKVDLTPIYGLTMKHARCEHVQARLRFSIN
Briefly: Cytochrome P450 inhibition assay (P450-Glo) CYP1A2. The class given is in vitro ADME. Conditions: compounds 10 μM; miltefosine 10 μM or 1 μM.
Source text: as §1, §2

Data set [1] concerns T. cruzi Y strain intracellular amastigotes. The experiment in a line: Activity against T. cruzi Y strain intracellular amastigotes (HG39 cell-line, parasite load). The data set is classed as cell-based. The following applies: Trypanosoma cruzi, read-out: Parassite Load Reduction (%). The method, then: T. cruzi epimastigotes (Y strain) were obtained by axenic cultivation in the LIT medium, supplemented with 10% FBS (Cultilab, São Paulo, Brazil). Cultures were maintained at […] for 4–5 days until they reached the log growth phase. New cultures were made every 4 days from the initial inoculum of 2 × 10^6 parasites/mL. T. cruzi trypomastigotes (Y strain) were maintained in culture by the infection of LLC-MK2 (ATTC-CCL7) epithelial cells. This cell line was cultured in […] tissue culture bottles (TPP) in RPMI 1640 medium (Gibco), (Thermo Fischer Scientific, Carlsbad, CA, USA) supplemented with 10% FBS (Gibco) (Thermo Fischer Scientific, Carlsbad, CA, USA). Cultures were maintained at 37 °C under 5% CO2 atmosphere, and RPMI 1640 medium and SFB were exchanged every 48 h. After confluence, the cultures were treated with 1 mL of a mixture of trypsin and versene (Sigma, São Paulo, Brazil) (0.2 and 0.002%, respectively). After 24 h, a subconfluence culture was infected with the trypomastigotes in the approximate proportion of 10:1 parasites/cell. From five to seven days post infection, the trypomastigote stage was obtained from the culture supernatant. Alternatively (Figure 2), T. cruzi strain Y was maintained as previously described.

Data set [2] is described as follows: Cytotoxicity against THP-1 macrophages (MTT). The data set is classed as cell-based. The following applies: human, PMA-differentiated THP-1 macrophages, read-out: Toxicity CC50 ± SD Or CC50 Interval Estimation. Here is the method:
The effect of compounds selected compounds on THP-1-derived macrophages was assessed by the colorimetric MTT assay (3-(4,5-dimethylthiazol-2-yl)-2,5-diphenyl tetrazolium bromide). Briefly, 1 × 10^5 THP-1 cells/mL were differentiated into macrophages by addition of 20 ng/mL of phorbol-myristate 13-acetate (PMA, Sigma, Saint Louis, MI, USA) for 18 h, followed by replacement with fresh medium for 24 h. Cells were incubated with 100 µL of compounds ranging from 100 to 1 µM after dilution in the RPMI complete medium containing a maximum amount of 1% DMSO. After incubation for 72 h, the medium was removed and 100 µL of 0.5 mg/mL MTT solution diluted in RPMI was added. Plates were incubated for an additional 4 h to allow viable cells to convert MTT into a purple formazan product. Solubilization of formazan crystals was achieved by the addition of 2-propanol and absorbance was read at 570 nm using a Synergy 2 Multi-Mode Reader (Biotek, Winooski, VT, USA). Cytotoxicity was evaluated by the determination of the CC50 value (drug concentration that reduced the percentage of viable cells in 50%) and calculated by non-linear regression analysis using GraphPad Prism version 8.1.1 for Windows (GraphPad Software, San Diego, CA, USA).

T1 sequence (P33261 whole entry): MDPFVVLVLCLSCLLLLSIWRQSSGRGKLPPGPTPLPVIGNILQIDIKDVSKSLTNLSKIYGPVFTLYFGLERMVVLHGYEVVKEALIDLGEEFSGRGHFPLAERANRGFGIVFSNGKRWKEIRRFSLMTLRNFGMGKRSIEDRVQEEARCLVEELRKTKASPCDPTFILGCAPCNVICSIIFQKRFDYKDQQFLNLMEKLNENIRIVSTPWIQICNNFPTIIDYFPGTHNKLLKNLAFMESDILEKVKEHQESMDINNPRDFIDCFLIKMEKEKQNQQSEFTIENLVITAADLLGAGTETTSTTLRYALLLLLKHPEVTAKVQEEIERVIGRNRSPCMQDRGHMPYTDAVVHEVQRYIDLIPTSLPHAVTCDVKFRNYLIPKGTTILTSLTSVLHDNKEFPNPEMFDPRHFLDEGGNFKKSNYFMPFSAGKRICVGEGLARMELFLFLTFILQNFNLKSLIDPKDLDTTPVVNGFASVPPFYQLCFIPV

On to `CCCCCc1cn(CCCCCCCCCCCOP(=O)([O-])OCC[N+](C)(C)C)nn1` [Compound 25, 11-(4-pentyl-1H-1,2,3-triazol-1-yl)undecyl (2-(trimethylammonio)ethyl) phosphate inner salt], for which the “% inhibition ± SD at 10 μΜ CYP2C19” value on CYP2C19 is “–32.10%”. At CYP1A2, the “% inhibition ± SD at 10 μΜ CYP1A2” value is “–20.41%”. In addition, the inhibition of growth at 10 µM in data set [1] stood at 66.2%. In data set [2], the CC50 at 72 h is above 100 µM.
For `C[N+](C)(C)CCOP(=O)([O-])OCCCCCCCCCCCn1cc(CC2CCCC2)nn1` [Compound 28, 11-(4-(cyclopentylmethyl)-1H-1,2,3-triazol-1-yl)undecyl (2-(trimethylammo nio)ethyl) phosphate inner salt], in that order: “–32.71%”, “–13.84%”, 58.3% and above 100 µM.
For `C[N+](C)(C)CCOP(=O)([O-])OCCCCCCCCCCCn1cc(CC2CCCCC2)nn1` [Compound 29, 11-(4-(cyclohexylmethyl)-1H-1,2,3-triazol-1-yl)undecyl (2-(trimethylammonio)ethyl) phosphate inner salt], in that order: “–28.74%”, “–28.56%”, 69.9% and above 100 µM.
The like results for `C[N+](C)(C)CCOP(=O)([O-])OCCCCCn1cc(CCCCCCCCNC(=O)OCc2ccccc2)nn1` [Compound 31, 5-(4-(8-(((benzyloxy)carbonyl)amino)octyl)-1H-1,2,3-triazol-1-yl)pentyl (2-(trimethylammonio)ethyl) phosphate inner salt] were, in that order, “–2.38%”, 13.80%, 0% and above 100 µM.
Take `C[N+](C)(C)CCOP(=O)([O-])OCCCCCCCCCCCn1cc(CCCCCCCCNC(=O)OCc2ccccc2)nn1` [Compound 32, 11-(4-(8-(((benzyloxy)carbonyl)amino)octyl)-1H-1,2,3-triazol-1-yl)undecyl (2-(trimethylammonio)ethyl) phosphate inner salt]: the “% inhibition ± SD at 10 μΜ CYP1A2” value on CYP1A2 was 12.02%. The inhibition of growth at 10 µM in data set [1] was 0%. In addition, the CC50 at 72 h in data set [2] was above 100 µM.
As for `C[N+](C)(C)CCCOP(=O)([O-])OCCCCCCCCCCCn1cc(CC2CCCCC2)nn1` [Compound 33, 11-(4-(cyclohexylmethyl)-1H-1,2,3-triazol-1-yl)undecyl (3-(trimethylammonio)propyl) phosphate inner salt], the “% inhibition ± SD at 10 μΜ CYP2C19” value at CYP2C19 was determined as 4.22%. Also, the “% inhibition ± SD at 10 μΜ CYP1A2” value at CYP1A2 turned out to be 15.23%. Further, the inhibition of growth at 10 µM in data set [1] worked out at 0%. The cytotoxic concentration (CC50) at 72 h in data set [2] was above 10 µM.
As to `C[N+](C)(C)CCOP(=O)([O-])OCCCCCCCCCCCn1cc(CCCCCCCCC(=O)O)nn1` [Compound 34, 11-(4-(8-carboxyoctyl)-1H-1,2,3-triazol-1-yl)undecyl (2-(trimethylammonio)ethyl) phosphate inner salt], the “% inhibition ± SD at 10 μΜ CYP2C19” value on CYP2C19 is on record as 4.89%. Moreover, at CYP1A2, the “% inhibition ± SD at 10 μΜ CYP1A2” value is on record as “–3.73%”. Also, the inhibition of growth at 10 µM in data set [1] is 0%. The half-maximal cytotoxic concentration (CC50) at 72 h in data set [2] was 50 to 100 µM.
In the case of `C[N+](C)(C)CCOP(=O)([O-])OCCCCCn1cc(CCCCCCCCN)nn1` [Compound 35, 5-(4-(8-aminooctyl)-1H-1,2,3-triazol-1-yl)pentyl (2-(trimethylammonio)ethyl) phosphate inner salt], at CYP2C19, the “% inhibition ± SD at 10 μΜ CYP2C19” value was “–3.09%”. Besides, the “% inhibition ± SD at 10 μΜ CYP1A2” value on CYP1A2 was 9.42%. For the same compound, the inhibition of growth at 10 µM in data set [1] amounted to 0%. Besides, the CC50 at 72 h in data set [2] was above 100 µM.
The like results for `CCCCCCCCCCc1cc(CCCCCCCCCCOP(=O)([O-])OCC[N+](C)(C)C)no1` [Compound 41, 10-(5-decylisoxazol-3-yl)decyl (2-(trimethylammonio)ethyl) phosphate inner salt] were, in that order, 5.65%, 10.86%, 63.3% and 12.5 to 25 µM.
The like results for `CCCCCCCCc1noc(CCCCCOP(=O)([O-])OCC[N+](C)(C)C)n1` [Compound 53, 5-(3-octyl-1,2,4-oxadiazol-5-yl)pentyl (2-(trimethylammonio)ethyl) phosphate inner salt] were, in that order, “–17.22%”, 20.03%, 44.5% and 12.5 to 25 µM.
For the compound `CCCCCCCCc1noc(CCCCCCCCCCOP(=O)([O-])OCC[N+](C)(C)C)n1` [Compound 54, 10-(3-octyl-1,2,4-oxadiazol-5-yl)decyl (2-(trimethylammonio)ethyl) phosphate inner salt], the “% inhibition ± SD at 10 μΜ CYP2C19” value at CYP2C19 came out at 10.43%. Besides, on CYP1A2, the “% inhibition ± SD at 10 μΜ CYP1A2” value came out at 9.37%. In data set [1], the inhibition of growth at 10 µM is 90.5%. In data set [2], the CC50 at 72 h was above 10 µM.
For `CCCCCCCc1nnc(CCCCCCCCCCOP(=O)([O-])OCC[N+](C)(C)C)o1` [Compound 65, 10-(5-heptyl-1,3,4-oxadiazol-2-yl)decyl (2-(trimethylammonio)ethyl) phosphate inner salt], the “% inhibition ± SD at 10 μΜ CYP2C19” value on CYP2C19 is “–1.75%”. For the same compound, the “% inhibition ± SD at 10 μΜ CYP1A2” value at CYP1A2 came out at 18.05%. In data set [1], the inhibition of growth at 10 µM was 92.2%. In addition, the CC50 at 72 h in data set [2] is 12.5 to 25 µM.

As usually defined, the CC50 is the concentration that lowers cell viability or growth by half.
